This assay addresses T1, hCRTH2 receptor (Homo sapiens, UniProt Q9Y5Y4).
T1 construct: expressed in transfected cells; host or cells: HEK293
T1 sequence (Q9Y5Y4 1-395): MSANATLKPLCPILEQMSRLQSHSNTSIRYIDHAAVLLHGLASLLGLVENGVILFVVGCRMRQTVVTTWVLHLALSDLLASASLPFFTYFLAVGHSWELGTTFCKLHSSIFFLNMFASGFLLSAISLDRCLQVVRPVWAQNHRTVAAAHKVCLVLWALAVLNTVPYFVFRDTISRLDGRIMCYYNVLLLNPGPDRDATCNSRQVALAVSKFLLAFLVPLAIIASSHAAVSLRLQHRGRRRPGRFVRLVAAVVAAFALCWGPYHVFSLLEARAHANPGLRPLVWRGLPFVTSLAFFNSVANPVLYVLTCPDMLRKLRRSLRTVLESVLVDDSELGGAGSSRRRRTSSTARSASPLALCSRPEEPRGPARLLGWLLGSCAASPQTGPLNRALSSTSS
Kind of assay: Radioligand displacement assay (3H-PGD2) on hCRTH2 receptor membranes. In kind it is binding. The settings on record: antagonistic activity. Background: Displacement assays read how much labelled ligand stays bound in the presence of the test substance.

The mark [1] stands for this setting: 3H-PGD2 radioligand displacement, HEK293-hCRTH2 membranes.
Where [2] appears, read: 3H-PGD2 displacement on HEK293-hCRTH2 membrane fragments.

pIC50: −log10 of the molar value.

The term pIC50 denotes the negative decadic logarithm of the IC50, by convention in mol/L. A low value points to a high IC50.

Turning to `O=C(O)COc1ccc(Cl)cc1C1c2ccc(Cl)c(Cl)c2CN1C(=O)OCc1ccccc1` (racemic) [Example 558], under setting [1], the pIC50 was 7.77.

For the compound `O=C(O)COc1ccc(Cl)cc1[C@@H]1c2ccccc2CCN1C(=O)[C@@H]1C[C@H]1c1cccc(F)c1` [Example 565, (4-Chloro-2-{(S)-2-[(1R,2R)-2-(3-fluoro-phenyl)-cyclopropanecarbonyl]-1,2,3,4-tetrahydro-isoquinolin-1-yl}-phenoxy)-acetic acid], for the setting “radioligand displacement (3H-PGD2), hCRTH2 receptor membranes”, the pIC50 was 8.58.

Compound `COc1ccc(COC(=O)N2CCc3ccccc3C2c2cc(Cl)ccc2OCC(=O)O)c(OC)c1` (racemic) [Example 254] gave a pIC50 under setting [2] of 7.80.

Compound `Cn1cncc1COC(=O)N1CCc2cc(F)ccc2[C@H]1c1cc(Cl)ccc1OCC(=O)O` [Example 340, (S)-1-(2-Carboxymethoxy-5-chloro-phenyl)-6-fluoro-3,4-dihydro-1H-isoquinoline-2-carboxylic acid 3-methyl-3H-imidazol-4-ylmethyl ester] gave a pIC50 under setting [1] of 8.29.

Consider `COc1ccc(OCC(=O)O)c(C2c3ccccc3CCN2C(=O)OCc2ccccc2)c1` (racemic) [Example 24, (±)-1-(2-Carboxymethoxy-5-methoxy-phenyl)-3,4-dihydro-1H-isoquinoline-2-carboxylic acid benzyl ester], for which the pIC50 under setting [2] was 7.08.

With `O=C(O)COc1ccc(Cl)cc1C1c2ccccc2CCN1C(=O)Cc1c[nH]c2ccc(Cl)cc12` (racemic) [Example 96, (±)-(4-Chloro-2-{2-[2-(5-chloro-1H-indol-3-yl)-acetyl]-1,2,3,4-tetrahydro-isoquinolin-1-yl}-phenoxy)-acetic acid], the pIC50 under setting [2] is 6.76.

`O=C(O)COc1ccc(Cl)cc1C1c2ccccc2CCN1C(=O)NCc1ccccc1Cl` (racemic) [Example 490]: the pIC50 under setting [1] is 7.82.

For the compound `O=C(O)COc1ccc(Cl)cc1C1c2ccccc2CN1C(=O)NCc1ccc(F)cc1` (racemic) [Example 554], the negative logarithm of the IC50 (pIC50) under setting [1] is 7.59.

Regarding `O=C(O)COc1ccc(Cl)cc1[C@@H]1c2ccc(F)cc2CCN1C(=O)CCn1ncc2cc(F)ccc21` [Example 395, (4-Chloro-2-{(S)-6-fluoro-2-[3-(5-fluoro-indazol-1-yl)-propionyl]-1,2,3,4-tetrahydro-isoquinolin-1-yl}-phenoxy)-acetic acid], the pIC50 under setting [1] was 7.55. This pIC50 and that of the compound before are within 0.2 log units of each other.

For the compound `Cc1conc1COC(=O)N1CCc2ccccc2[C@H]1c1cc(Cl)ccc1OCC(=O)O` [Example 280, (S)-1-(2-Carboxymethoxy-5-chloro-phenyl)-3,4-dihydro-1H-isoquinoline-2-carboxylic acid 4-methyl-isoxazol-3-ylmethyl ester], under setting [2], the pIC50 is 9.46.

In turn, `Cc1ccc(OCCC(=O)N2CCc3ccccc3C2c2cc(Cl)ccc2OCC(=O)O)cc1` (racemic) [Example 88, (±)-{4-Chloro-2-[2-(3-p-tolyloxy-propionyl)-1,2,3,4-tetrahydro-isoquinolin-1-yl]-phenoxy}-acetic acid] showed a pIC50 under setting [2] of 6.83.

As for `O=C(O)COc1ccc(F)cc1C1c2ccccc2CCN1C(=O)CCOc1ccccc1` (racemic) [Example 144, (±)-{4-Fluoro-2-[2-(3-phenoxy-propionyl)-1,2,3,4-tetrahydro-isoquinolin-1-yl]-phenoxy}-acetic acid], under setting [2], the pIC50 was 7.13.

Under setting [2], `O=C(O)COc1ccc(Cl)cc1C1c2ccccc2CCN1C(=O)CCOc1ccc(F)cc1` (racemic) [Example 102, (±)-(4-Chloro-2-{2-[3-(4-fluoro-phenoxy)-propionyl]-1,2,3,4-tetrahydro-isoquinolin-1-yl}-phenoxy)-acetic acid] showed a pIC50 of 8.12.

Consider `O=C(O)COc1ccc(Cl)cc1C1c2ccccc2CCN1C(=O)OCc1cc(F)ccc1Cl` (racemic) [Example 260], for which, under setting [2], the negative-log IC50 (pIC50) was 7.82.

On to `CCO[C@@H]1C[C@H]1C(=O)N1CCc2ccccc2[C@H]1c1cc(Cl)ccc1OCC(=O)O` [Example 461], for which, under setting [1], the pIC50 is 6.73.
